# Results taken from ChEMBL document CHEMBL5696441 (Nat Chem Biol, 2011).
# What was measured:
# [1] = target: T1, Megakaryocyte-associated tyrosine-protein kinase (Homo sapiens) (UniProt P42679); assay: Inhibition of CTK (unknown origin) assessed as remaining activity at 1 uM by Kinome scan method relative to control
# T1 sequence (whole entry): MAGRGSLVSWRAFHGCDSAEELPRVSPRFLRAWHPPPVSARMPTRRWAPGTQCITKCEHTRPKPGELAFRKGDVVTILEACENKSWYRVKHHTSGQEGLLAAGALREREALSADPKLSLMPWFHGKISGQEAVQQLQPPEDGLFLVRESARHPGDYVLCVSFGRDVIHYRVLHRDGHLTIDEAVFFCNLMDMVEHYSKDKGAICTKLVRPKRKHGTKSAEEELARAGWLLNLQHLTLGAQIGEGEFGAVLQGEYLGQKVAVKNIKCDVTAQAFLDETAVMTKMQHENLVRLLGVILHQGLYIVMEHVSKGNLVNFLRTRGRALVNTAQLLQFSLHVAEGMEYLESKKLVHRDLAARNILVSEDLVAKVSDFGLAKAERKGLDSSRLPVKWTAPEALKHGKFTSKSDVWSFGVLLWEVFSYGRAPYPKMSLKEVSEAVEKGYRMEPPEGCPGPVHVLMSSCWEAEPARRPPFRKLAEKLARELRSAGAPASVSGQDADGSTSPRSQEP
# [2] = target: Fibroblast growth factor receptor 1 (Homo sapiens) (UniProt P11362); assay: Inhibition of FGFR1 (unknown origin) assessed as remaining activity at 1 uM by Kinome scan method relative to control
# Chain of Fibroblast growth factor receptor 1 (Homo sapiens) (P11362 22-822 limits assumed): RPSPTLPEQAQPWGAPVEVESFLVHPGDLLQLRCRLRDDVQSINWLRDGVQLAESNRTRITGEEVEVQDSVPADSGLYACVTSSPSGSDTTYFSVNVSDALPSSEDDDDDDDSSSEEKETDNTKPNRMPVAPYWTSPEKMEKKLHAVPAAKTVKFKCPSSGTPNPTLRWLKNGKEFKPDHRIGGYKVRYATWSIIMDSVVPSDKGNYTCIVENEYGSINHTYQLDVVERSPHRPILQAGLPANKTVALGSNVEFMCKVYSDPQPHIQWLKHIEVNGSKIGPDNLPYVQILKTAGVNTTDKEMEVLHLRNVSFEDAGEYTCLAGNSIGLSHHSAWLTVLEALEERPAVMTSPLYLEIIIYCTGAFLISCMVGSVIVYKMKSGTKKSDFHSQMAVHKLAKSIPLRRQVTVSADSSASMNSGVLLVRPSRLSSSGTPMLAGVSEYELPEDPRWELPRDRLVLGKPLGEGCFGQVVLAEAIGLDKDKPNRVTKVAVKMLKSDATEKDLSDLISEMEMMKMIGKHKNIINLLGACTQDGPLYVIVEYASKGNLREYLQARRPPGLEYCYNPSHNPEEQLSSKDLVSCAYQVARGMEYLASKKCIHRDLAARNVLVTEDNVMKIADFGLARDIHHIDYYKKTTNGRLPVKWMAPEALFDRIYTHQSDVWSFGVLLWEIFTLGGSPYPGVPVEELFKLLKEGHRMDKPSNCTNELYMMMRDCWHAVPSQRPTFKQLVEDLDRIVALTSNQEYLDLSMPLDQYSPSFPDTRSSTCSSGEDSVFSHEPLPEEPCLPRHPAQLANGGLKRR
# [3] = target: Serine/threonine-protein kinase PAK 5 (Homo sapiens) (UniProt Q9P286); assay: Inhibition of PAK7 (unknown origin) assessed as remaining activity at 1 uM by Kinome scan method relative to control
# Chain of Serine/threonine-protein kinase PAK 5 (Homo sapiens) (Q9P286 whole entry, looked up): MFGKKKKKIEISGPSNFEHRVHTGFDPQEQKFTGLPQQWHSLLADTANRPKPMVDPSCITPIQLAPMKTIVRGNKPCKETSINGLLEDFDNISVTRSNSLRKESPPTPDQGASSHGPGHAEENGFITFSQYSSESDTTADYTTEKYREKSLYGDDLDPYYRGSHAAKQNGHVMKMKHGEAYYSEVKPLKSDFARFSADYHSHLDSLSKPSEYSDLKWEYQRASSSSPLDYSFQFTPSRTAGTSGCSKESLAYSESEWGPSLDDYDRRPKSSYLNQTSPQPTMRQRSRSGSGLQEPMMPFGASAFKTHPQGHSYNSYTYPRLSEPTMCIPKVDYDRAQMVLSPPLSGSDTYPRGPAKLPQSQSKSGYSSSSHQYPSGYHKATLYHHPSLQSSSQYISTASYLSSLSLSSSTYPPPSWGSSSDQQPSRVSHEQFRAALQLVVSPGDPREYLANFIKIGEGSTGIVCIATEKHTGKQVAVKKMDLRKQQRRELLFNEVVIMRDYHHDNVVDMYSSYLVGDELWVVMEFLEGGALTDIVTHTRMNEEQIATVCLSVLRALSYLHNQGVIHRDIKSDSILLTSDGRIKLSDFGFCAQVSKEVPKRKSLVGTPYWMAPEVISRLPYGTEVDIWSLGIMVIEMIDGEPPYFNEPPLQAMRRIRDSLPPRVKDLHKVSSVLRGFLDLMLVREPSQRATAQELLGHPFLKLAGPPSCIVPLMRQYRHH
# [4] = target: Mitogen-activated protein kinase kinase kinase 19 (Homo sapiens) (UniProt Q56UN5); assay: Inhibition of YSK4 (unknown origin) assessed as remaining activity at 1 uM by Kinome scan method relative to control
# Chain of Mitogen-activated protein kinase kinase kinase 19 (Homo sapiens) (Q56UN5 whole entry): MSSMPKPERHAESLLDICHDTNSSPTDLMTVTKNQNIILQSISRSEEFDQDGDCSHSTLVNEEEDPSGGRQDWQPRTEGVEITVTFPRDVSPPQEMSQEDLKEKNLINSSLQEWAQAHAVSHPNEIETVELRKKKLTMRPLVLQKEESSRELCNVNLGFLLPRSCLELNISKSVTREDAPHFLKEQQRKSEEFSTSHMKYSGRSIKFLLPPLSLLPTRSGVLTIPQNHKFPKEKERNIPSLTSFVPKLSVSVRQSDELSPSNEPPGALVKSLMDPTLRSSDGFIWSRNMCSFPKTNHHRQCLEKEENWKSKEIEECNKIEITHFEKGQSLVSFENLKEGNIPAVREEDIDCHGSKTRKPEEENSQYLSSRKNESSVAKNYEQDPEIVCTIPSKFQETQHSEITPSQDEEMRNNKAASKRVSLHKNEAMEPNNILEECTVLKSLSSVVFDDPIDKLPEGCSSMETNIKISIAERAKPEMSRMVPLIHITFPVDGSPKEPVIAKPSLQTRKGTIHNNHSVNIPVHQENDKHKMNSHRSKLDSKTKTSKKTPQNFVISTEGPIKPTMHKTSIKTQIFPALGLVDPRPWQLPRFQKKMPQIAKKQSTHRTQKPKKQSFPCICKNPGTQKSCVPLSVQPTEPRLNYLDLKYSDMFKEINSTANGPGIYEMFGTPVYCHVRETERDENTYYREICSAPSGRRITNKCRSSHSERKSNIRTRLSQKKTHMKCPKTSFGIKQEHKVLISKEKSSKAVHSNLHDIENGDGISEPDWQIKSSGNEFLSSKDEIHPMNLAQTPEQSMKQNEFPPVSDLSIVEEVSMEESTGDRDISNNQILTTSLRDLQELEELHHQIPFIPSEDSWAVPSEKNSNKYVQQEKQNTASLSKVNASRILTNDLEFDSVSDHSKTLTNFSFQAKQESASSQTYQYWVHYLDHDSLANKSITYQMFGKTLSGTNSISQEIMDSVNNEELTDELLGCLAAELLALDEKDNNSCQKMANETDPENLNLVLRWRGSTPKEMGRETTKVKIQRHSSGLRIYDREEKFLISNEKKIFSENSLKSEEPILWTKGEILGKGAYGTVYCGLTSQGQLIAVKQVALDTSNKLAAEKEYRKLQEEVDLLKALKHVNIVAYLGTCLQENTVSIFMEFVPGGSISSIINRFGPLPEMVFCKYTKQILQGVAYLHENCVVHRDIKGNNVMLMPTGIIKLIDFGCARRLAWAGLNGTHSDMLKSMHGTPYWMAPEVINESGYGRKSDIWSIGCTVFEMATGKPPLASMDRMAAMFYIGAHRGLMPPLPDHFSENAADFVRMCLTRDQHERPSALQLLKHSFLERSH
# [5] = target: Serine/threonine-protein kinase/endoribonuclease IRE1 (Homo sapiens) (UniProt O75460); assay: Inhibition of ERN1 (unknown origin) assessed as remaining activity at 1 uM by Kinome scan method relative to control
# [6] = target: NT-3 growth factor receptor (Homo sapiens) (UniProt Q16288); assay: Inhibition of TRKC (unknown origin) assessed as remaining activity at 1 uM by Kinome scan method relative to control
# [7] = target: Microtubule-associated serine/threonine-protein kinase 1 (Homo sapiens) (UniProt Q9Y2H9); assay: Inhibition of MAST1 (unknown origin) assessed as remaining activity at 1 uM by Kinome scan method relative to control
# Chain of Microtubule-associated serine/threonine-protein kinase 1 (Homo sapiens) (Q9Y2H9 whole entry, looked up): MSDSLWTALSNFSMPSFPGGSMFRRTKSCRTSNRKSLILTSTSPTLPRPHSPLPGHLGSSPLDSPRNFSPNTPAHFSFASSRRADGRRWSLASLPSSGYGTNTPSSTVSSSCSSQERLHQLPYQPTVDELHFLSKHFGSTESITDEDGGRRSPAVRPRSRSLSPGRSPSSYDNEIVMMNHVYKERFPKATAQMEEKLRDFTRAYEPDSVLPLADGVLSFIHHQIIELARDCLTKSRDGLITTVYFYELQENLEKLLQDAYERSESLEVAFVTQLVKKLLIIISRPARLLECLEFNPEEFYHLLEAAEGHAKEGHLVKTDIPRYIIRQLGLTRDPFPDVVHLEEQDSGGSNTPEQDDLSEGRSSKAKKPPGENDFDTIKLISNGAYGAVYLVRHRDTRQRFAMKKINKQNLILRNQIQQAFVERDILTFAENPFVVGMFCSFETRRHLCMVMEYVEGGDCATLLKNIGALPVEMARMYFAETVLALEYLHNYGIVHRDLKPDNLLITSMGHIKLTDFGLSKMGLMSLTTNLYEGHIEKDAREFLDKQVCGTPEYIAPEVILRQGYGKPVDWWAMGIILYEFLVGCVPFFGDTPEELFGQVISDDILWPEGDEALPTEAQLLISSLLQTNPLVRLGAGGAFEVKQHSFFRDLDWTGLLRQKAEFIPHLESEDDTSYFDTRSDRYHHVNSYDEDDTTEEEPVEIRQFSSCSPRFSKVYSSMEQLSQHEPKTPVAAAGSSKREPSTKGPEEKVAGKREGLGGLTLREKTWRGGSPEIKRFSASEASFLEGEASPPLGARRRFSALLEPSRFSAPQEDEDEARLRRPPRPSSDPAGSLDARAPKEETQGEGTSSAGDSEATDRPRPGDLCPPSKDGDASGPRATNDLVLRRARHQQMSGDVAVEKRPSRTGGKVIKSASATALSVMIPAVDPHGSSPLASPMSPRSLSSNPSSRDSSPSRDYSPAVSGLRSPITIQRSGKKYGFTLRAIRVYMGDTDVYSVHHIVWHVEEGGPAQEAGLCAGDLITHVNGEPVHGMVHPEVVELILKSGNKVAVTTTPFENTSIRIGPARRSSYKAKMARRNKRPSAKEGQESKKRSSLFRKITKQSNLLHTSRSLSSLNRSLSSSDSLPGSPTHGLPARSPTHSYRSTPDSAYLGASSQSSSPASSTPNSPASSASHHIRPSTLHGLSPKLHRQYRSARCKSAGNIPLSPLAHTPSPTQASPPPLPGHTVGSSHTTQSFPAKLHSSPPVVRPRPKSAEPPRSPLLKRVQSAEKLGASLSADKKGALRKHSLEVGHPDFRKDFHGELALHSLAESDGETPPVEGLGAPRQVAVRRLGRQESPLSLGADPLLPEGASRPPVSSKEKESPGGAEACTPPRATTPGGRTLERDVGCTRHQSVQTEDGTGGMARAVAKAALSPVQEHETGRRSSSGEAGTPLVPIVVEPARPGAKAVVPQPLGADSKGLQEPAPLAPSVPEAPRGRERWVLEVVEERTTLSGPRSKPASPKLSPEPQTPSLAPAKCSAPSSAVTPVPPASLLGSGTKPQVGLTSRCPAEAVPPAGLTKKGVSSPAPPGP
# [8] = target: T2, Tyrosine-protein kinase TXK (Homo sapiens) (UniProt P42681); assay: Inhibition of TXK (unknown origin) assessed as remaining activity at 1 uM by Kinome scan method relative to control
# T2 sequence (whole entry): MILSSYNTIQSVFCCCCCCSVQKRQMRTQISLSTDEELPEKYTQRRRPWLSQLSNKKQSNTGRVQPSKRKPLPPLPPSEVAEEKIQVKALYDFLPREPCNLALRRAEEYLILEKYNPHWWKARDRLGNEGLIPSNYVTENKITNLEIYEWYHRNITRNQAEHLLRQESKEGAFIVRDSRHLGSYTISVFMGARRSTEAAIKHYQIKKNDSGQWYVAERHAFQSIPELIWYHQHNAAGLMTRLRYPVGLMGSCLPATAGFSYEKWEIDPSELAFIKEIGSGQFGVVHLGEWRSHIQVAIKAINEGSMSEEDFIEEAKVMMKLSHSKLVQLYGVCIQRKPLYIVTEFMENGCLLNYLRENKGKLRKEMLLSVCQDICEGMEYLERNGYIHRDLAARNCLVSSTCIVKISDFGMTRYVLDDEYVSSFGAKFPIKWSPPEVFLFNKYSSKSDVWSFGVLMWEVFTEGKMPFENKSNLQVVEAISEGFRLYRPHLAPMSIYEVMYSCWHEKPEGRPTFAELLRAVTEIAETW
# [9] = target: Cyclin-dependent kinase 2 (Homo sapiens) (UniProt P24941); assay: Inhibition of CDK2 (unknown origin) assessed as remaining activity at 1 uM by Kinome scan method relative to control
# [10] = target: MAP/microtubule affinity-regulating kinase 3 (Homo sapiens) (UniProt P27448); assay: Inhibition of MARK3 (unknown origin) assessed as remaining activity at 1 uM by Kinome scan method relative to control
# [11] = target: Serine/threonine-protein kinase MRCK beta (Homo sapiens) (UniProt Q9Y5S2); assay: Inhibition of MRCKB (unknown origin) assessed as remaining activity at 1 uM by Kinome scan method relative to control
# [12] = target: MAP kinase-interacting serine/threonine-protein kinase 2 (Homo sapiens) (UniProt Q9HBH9); assay: Inhibition of MKNK2 (unknown origin) assessed as remaining activity at 1 uM by Kinome scan method relative to control
# [13] = target: T3, cGMP-dependent protein kinase 1 (Homo sapiens) (UniProt Q13976); assay: Inhibition of PRKG1 (unknown origin) assessed as remaining activity at 1 uM by Kinome scan method relative to control
# T3 sequence (whole entry): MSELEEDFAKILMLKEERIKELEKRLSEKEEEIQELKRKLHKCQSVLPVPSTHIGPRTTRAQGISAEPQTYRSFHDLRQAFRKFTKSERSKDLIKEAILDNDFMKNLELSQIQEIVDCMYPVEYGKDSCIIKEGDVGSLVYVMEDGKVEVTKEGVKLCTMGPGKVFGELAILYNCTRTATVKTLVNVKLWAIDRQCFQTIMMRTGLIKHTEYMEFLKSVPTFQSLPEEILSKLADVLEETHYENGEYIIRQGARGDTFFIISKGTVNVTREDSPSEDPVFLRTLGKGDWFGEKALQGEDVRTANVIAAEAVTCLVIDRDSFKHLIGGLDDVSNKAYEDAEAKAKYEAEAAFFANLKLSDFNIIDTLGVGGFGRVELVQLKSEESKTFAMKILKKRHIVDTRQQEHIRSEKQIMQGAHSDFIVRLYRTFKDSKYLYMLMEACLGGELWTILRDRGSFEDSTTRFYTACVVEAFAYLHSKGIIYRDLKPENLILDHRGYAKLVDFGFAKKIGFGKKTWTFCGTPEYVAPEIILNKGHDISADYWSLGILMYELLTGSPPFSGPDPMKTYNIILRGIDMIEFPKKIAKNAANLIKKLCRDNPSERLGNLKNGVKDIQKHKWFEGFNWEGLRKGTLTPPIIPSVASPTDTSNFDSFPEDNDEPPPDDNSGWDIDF
# [14] = target: Serine/threonine-protein kinase 25 (Homo sapiens) (UniProt O00506); assay: Inhibition of YSK1 (unknown origin) assessed as remaining activity at 1 uM by Kinome scan method relative to control
# Chain of Serine/threonine-protein kinase 25 (Homo sapiens) (O00506 whole entry, looked up): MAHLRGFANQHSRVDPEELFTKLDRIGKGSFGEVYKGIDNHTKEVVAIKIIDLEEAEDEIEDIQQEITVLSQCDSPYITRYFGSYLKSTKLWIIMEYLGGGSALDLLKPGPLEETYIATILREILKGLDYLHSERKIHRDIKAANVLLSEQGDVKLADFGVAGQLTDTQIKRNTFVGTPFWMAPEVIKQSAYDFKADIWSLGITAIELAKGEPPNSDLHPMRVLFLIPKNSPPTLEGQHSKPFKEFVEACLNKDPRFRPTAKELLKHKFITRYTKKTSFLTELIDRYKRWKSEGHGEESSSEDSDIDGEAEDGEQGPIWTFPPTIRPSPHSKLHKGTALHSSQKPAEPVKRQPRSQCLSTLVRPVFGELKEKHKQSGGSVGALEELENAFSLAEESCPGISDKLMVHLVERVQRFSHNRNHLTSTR
Structure (SMILES),Activity [1],Activity [2],Activity [3],Activity [4],Activity [5],Activity [6],Activity [7],Activity [8],Activity [9],Activity [10],Activity [11],Activity [12],Activity [13],Activity [14]
Nc1ccccc1Nc1ccc2c(c1)CCc1ccccc1C2=O,71%,94%,91%,99%,98%,86%,79%,90%,97%,82%,71%,88%,88%,92%
O=C1c2ccc(Nc3ccc(F)cc3F)cc2CCc2ccc(OC[C@H](O)CO)cc21 [Skepinone-L],80%,90%,86%,100%,100%,100%,85%,86%,98%,90%,97%,72%,100%,100%
